Literature values in publication PMC3131558, “Plitidepsin Has a Safe Cardiac Profile: A Comprehensive Analysis” (Marine Drugs, 2011).

Conditions: possible class effect of HDACI inhibitors; cited from earlier work
From the text: Plitidepsin has neither shown cardiac toxicity during preclinical/toxicology studies nor has been reported in early phase I clinical trials.

Compound | Electrocardiogram (ECG) abnormalities
O=C(/C=C/c1ccc(CN(CCO)CCc2c[nH]c3ccccc23)cc1)NO [LAQ824] | reported
Cc1[nH]c2ccccc2c1CCNCc1ccc(/C=C/C(=O)NO)cc1 [LBH589] | reported
